Measurements published in US12268666B2, “Spray-dried dispersions, formulations, and polymorphs of (S)-5-amino-3-(4-((5-fluoro-2-methoxybenzamido)methyl)phenyl)-1-(1,1,1-trifluoropropan-2-yl)-1H-pyrazole-4-carboxamide” (Loxo Oncology, Inc., priority 2018, dated 2025).
Like-named read-outs stand apart in the source and are kept apart here.

Columns and labels:
[1] = target: T1, full-length wild type (WT) human BTK (Homo sapiens, UniProt Q06187); experiment: BTK activity assay, [33P]-ATP incorporation into poly-EY; format: biochemical
T1 construct: against full-length wild type (WT) and mutant human BTK enzymes
Protocol: (§1) The activity of the compound of Formula I against full-length wild type (WT) and mutant human BTK enzymes is determined by monitoring the incorporation [^33P]-PO4 from [γ-^33P]-ATP into poly-glutamic acid-tyrosine (poly-EY) peptide substrate. The reaction mixtures each contained polyhistidine-tagged BTK enzyme, poly-EY and BTK inhibitor at the appropriate concentrations. The reaction mixtures are incubated for 20 minutes at room temperature after which [[γ-^33P]-ATP (radiochemical concentration 10 μCi/μL) at 10 μM or the ATP Km concentration for each enzyme is added. After 2 hours of incubation at room temperature, the radiolabeled peptide substrate is captured, and incorporated radioactivity is quantified.
Each assay is performed at an ATP concentration close to the Km for each enzyme. […] After co-incubation with a serial dilution of the compound of Formula I, the quantity of ^33P incorporated into a peptide substrate is measured and the data analyzed using standard curve fitting methods.

PLCγ2 = PLCγ2 Y1217 phosphorylation in Ramos RA1 cells; format: cell-based; conditions: anti-human IgM stimulation
Protocol: Ramos RA1 cells, obtained from ATCC (CRL-1596), are grown in RPMI 1640+10% fetal bovine serum (FBS) at 37° C. in a CO2 incubator. […] Nine hundred μL of cell/well are added to 24 well plates and 100 uL of 10× stocks of inhibitor are added. The 10× compound of Formula I stocks are prepared in 1% DMSO, by doing a 1:3 dilution series with final concentrations in the wells ranging between 900 nM to 0.41 nM. […] All samples are tested in triplicate. After 2 hours (starvation and dosing) sodium orthovanadate is added to a final concentration of 200 μM and incubated for 30 more min. Cells are then stimulated with 4 uL of goat F(ab′)2 anti-human IgM (Jackson ImmunoResearch #109-006-129) for 5 min at room temperature, spun down, resuspended in 100 uL of […]™ M (Sigma #C2978) containing 5× Halt phosphatase and protease inhibitor cocktails (Pierce #78442), and stored at −80° C. Lysates are quantified by BCA (Pierce #23225) and analyzed by Simple Western (Protein Simple) with the following antibodies: anti-phospho-BTK (Y223) (Cell Signaling Technologies (CST) #5082), anti-BTK (CST #8547), anti-phospho-PLCγ2 (Y1217) (CST 3871), anti-PLCγ2 (CST 3872), and anti-GAPDH (GAPDH refers to glyceraldehyde 3-phosphate dehydrogenase) (Novus #MAB5718-SP). […] Results are analyzed with Compass software (Protein Simple), and IC50 values are calculated on GraphPad Prism 7.04 software.

TMD8 tumor xenografts = experiment: Tumor growth in TMD8 human diffuse large B cell lymphoma xenograft model; format: in vivo
Protocol: The human diffuse large B cell lymphoma TMD8 cells are maintained in suspension in RPMI 1640 with 10% Fetal Calf Serum (FCS) and 1% of Glutamax. The cells are transferred to a 50 mL Falcon tube and centrifuged at 1200 rpm for 5 min. The supernatant is removed and the cell pellet resuspended in PBS before being mixed with Matrigel (1/1, v/v). The cell suspension:Matrigel mixture at a final target cell concentration of 40×10^6 cells/mL is kept on ice until the s.c. injections (250 μL/mouse) to maintain the Matrigel solution in a liquid state.
The animals are female BalB/c mice aged 9 weeks-old at the day of injection. The mice are housed in individually ventilated cage racks with HEPA filtered air supply and all materials that contact the immunodeficient animals are steam sterilized. This includes cages, bedding, water and feed. The animal room conditions are set as follows. The temperature is 22±2° C., and the relative humidity is 50±10%. The light/dark cycle is 12 h/12 h, and the air change rate is 12 to 15 cycles/hour of filtered, 100% fresh air. All animals had free access to sterilized water and irradiated controlled food (reference A04CSafe, Augy-France).
The compound of Formula I is formulated in methylcellulose/Tween80/Water (0.6%/0.5%/98.5%; w/w/v). The vehicle for the dosing of control group is methylcellulose/Tween 80/Water (0.6%/0.5%/98.5%; w/w/v), 10 mL/kg. 151.4 mg of the compound of Formula I are weighed and formulated with 50.4 mL of vehicle to obtain a solution at 3 mg/mL of free base. For the 1 mg/mL suspension preparation, 50.1 mg of the compound of Formula I are weighed and solubilized in 50.1 mL of vehicle. […]
Tumor width and length are measured with digital calipers. The tumor volume in mm^3 is calculated by the formula: Volume=0.52×(width)^2×length[…], width and length measured in mm. […]
Tumors are collected from each mouse at Day 28 post the cell injection. […] Tumor weight statistical analysis between each group is determined by a 1-way ANOVA and by 2-Way ANOVA with repeated measures for the mice weight and the tumor volume monitoring, followed by a Dunnett's test. […]

BTK P190K = target: T2, BTK P190K (Homo sapiens, UniProt Q06187, P190K); experiment: BTK activity assay, [33P]-ATP incorporation into poly-EY; format: biochemical; conditions: ATP at Km concentration
T2 construct: against full-length wild type (WT) and mutant human BTK enzymes
Protocol: as §1, with “The” for “The activity of the compound of Formula I against full-length wild type (WT) and mutant human BTK enzymes is determined by monitoring the incorporation [^33P]-PO4 from [γ-^33P]-ATP into poly-glutamic acid-tyrosine (poly-EY) peptide substrate. The”

BTK E41K = target: T3, BTK E41K (Homo sapiens, UniProt Q06187, E41K); experiment: as above; format: biochemical; conditions: ATP at Km concentration
T3 construct: against full-length wild type (WT) and mutant human BTK enzymes
Protocol: as §1, with “The” for “The activity of the compound of Formula I against full-length wild type (WT) and mutant human BTK enzymes is determined by monitoring the incorporation [^33P]-PO4 from [γ-^33P]-ATP into poly-glutamic acid-tyrosine (poly-EY) peptide substrate. The”

T1 sequence (Q06187 whole entry): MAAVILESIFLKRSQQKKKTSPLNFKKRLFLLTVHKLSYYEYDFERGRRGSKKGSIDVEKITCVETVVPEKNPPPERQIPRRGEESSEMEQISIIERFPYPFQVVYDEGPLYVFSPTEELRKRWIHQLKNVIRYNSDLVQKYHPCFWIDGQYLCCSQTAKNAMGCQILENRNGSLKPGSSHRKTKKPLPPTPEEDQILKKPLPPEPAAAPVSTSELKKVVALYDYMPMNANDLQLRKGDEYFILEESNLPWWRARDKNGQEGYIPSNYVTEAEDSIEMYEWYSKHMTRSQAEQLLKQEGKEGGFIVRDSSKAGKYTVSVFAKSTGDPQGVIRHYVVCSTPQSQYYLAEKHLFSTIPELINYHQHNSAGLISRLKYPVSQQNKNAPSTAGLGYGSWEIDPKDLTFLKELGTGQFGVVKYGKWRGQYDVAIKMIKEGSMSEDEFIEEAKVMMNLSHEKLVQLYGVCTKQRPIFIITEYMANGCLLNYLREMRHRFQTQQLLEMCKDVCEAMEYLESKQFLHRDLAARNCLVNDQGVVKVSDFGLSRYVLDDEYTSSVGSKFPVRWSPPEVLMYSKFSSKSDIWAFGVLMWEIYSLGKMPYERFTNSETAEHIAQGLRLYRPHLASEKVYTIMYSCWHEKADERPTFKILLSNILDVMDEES
T3 sequence (Q06187 whole entry E41K): as the sequence (Q06187 whole entry) above, with E41K counted along it
T2 sequence (Q06187 whole entry P190K): as the sequence (Q06187 whole entry) above, with P190K counted along it

COc1ccc(F)cc1C(=O)NCc1ccc(-c2nn([C@@H](C)C(F)(F)F)c(N)c2C(N)=O)cc1 [compound of Formula I, (S)-5-amino-3-(4-((5-fluoro-2-methoxybenzamido)methyl)phenyl)-1-(1,1,1-trifluoropropan-2-yl)-1H-pyrazole-4-carboxamide]
IC50 ([1]; 10 μM ATP, read-out: IC50): 0.95 nM
IC50 ([1]; ATP at Km concentration, read-out: IC50 value): 3.15 nM
IC50 (PLCγ2): 8.2 nM
TGI vs the vehicle treated group (TMD8 tumor xenografts; 10 mg/kg oral BID for 14 days): 35%
TGI vs the vehicle treated group (TMD8 tumor xenografts; 30 mg/kg oral BID for 14 days): 87%
tolerability (TMD8 tumor xenografts; chronic oral BID administration for 14 days at 10 and 30 mg/kg): well tolerated
IC50 (BTK P190K): 2.14 nM
IC50 (BTK E41K): 7.85 nM
